From paper PMC8635623, “A click chemistry approach to pleuromutilin derivatives, evaluation of anti-MRSA activity and elucidation of binding mode by surface plasmon resonance and molecular docking” (Journal of Enzyme Inhibition and Medicinal Chemistry, 2021)
≈ marks a conversion by molar mass, not a printed value.

Legend:
Test in all cases: MIC/MBC by broth micro dilution
S. aureus 144 = type: cell-based; settings: Staphylococcus aureus, S. aureus 144 (clinical strain); for MIC: 37 °C, 24 h; for MBC: lowest concentration reducing viable counts by 99.9%
Description: (§1) All the synthesised 1,2,3-triazole linked pleuromutilin analogues were screened for in vitro antibacterial activities against methicillin-resistant S. aureus (ATCC 43300), S. aureus (ATCC 29213), and two clinical strains of S. aureus (AD3 and 144, isolated from Guangdong Province, China). The MICs and MBCs of the synthesised pleuromutilin derivatives along with pleuromutilin and tiamulin used as the reference antibacterial drugs, were determined by the broth micro dilution methods according to the Clinical and Laboratory Standards Institute (CLSI)[18].
(§2) The MIC of these novel pleuromutilin derivatives against methicillin-resistant S. aureus (ATCC 43300), S. aureus (ATCC 29213), S. aureus (AD3) and S. aureus (144) were determined by using pleuromutilin and tiamulin as positive control. MIC values were determined by the broth micro dilution methods in accordance with the Clinical and Laboratory Standards Institute (2012). Stock solutions of these compounds were dissolved in methanol to make a stock solution with a concentration of 1280 µg/mL. The working solutions (640 µg/mL) were obtained by diluting stock solutions in sterile Mueller-Hinton (MH) broth. The bacterial solution and solutions of these compounds with a final concentration of 0.016–32 µg/mL were distributed into 96-well plates, with a total volume of 200 µL. Three parallel experiments for each compound concentration. The plates were incubated at 37 °C for 24 h.
(§3) MBC values were determined according to CLSI (2003) and previously report with slightly modification[18]^,[28]^,[31]. After obtaining the MIC results, the 96-well plates were incubated at 37 °C for 24 h. 100 µL of the bacterial solution from the wells with no visible growth was inoculated on MH agar plates. The MH agar plates were incubated at 37 °C for colony count. The MBC was determined as the lowest concentration of compound, which reduces the viable counts for 99.9%.

S. aureus ATCC 29213 = type: cell-based; settings: Staphylococcus aureus; for MIC: ATCC29213, 37 °C, 24 h; for MBC: ATCC29213, lowest concentration reducing viable counts by 99.9%
Description: as §1, §2, §3

S. aureus AD3 = type: cell-based; settings: Staphylococcus aureus, S. aureus AD3 (clinical strain); for MIC: 37 °C, 24 h; for MBC: lowest concentration reducing viable counts by 99.9%
Description: as §1, §2, §3

MRSA ATCC 43300 = type: cell-based, methicillin-resistant S. aureus; settings: Staphylococcus aureus; for MIC: 37 °C, 24 h, read-out: MIC; for MBC: lowest concentration reducing viable counts by 99.9%
Description: as §1, §2, §3

## C=C[C@]1(C)C[C@@H](OC(=O)Cn2cc(CN3CCN(C)CC3)nn2)[C@]2(C)[C@H](C)CC[C@]3(CCC(=O)[C@H]32)[C@@H](C)[C@@H]1O [Compound 48, 22-(2-(4-(4-Methyl-piperazin-1-yl)-methyl)-1H-1,2,3-triazol-1-yl)-22-deoxy pleuromutilin]
S. aureus 144
  MIC: 32 µg/mL (≈ 59.1 µM)
  MBC: 32 µg/mL (≈ 59.1 µM)
S. aureus ATCC 29213
  MIC: 16 µg/mL (≈ 29.5 µM)
  MBC: 32 µg/mL (≈ 59.1 µM)
S. aureus AD3
  MIC: 16 µg/mL (≈ 29.5 µM)
  MBC: 32 µg/mL (≈ 59.1 µM)
MRSA ATCC 43300
  MIC: 8 µg/mL (≈ 14.8 µM)
  MBC: 16 µg/mL (≈ 29.5 µM)

## C=C[C@]1(C)C[C@@H](OC(=O)Cn2cc(CN3CCN(c4ccccc4)CC3)nn2)[C@]2(C)[C@H](C)CC[C@]3(CCC(=O)[C@H]32)[C@@H](C)[C@@H]1O [Compound 49, 22-(2-(4-(4-Phenyl-piperazin-1-yl)-methyl)-1H-1,2,3-triazol-1-yl)-22-deoxy pleuromutilin]
S. aureus 144
  MIC: 8 µg/mL (≈ 13.2 µM)
  MBC: 16 µg/mL (≈ 26.5 µM)
S. aureus ATCC 29213
  MIC: 8 µg/mL (≈ 13.2 µM)
  MBC: 8 µg/mL (≈ 13.2 µM)
S. aureus AD3
  MIC: 8 µg/mL (≈ 13.2 µM)
  MBC: 16 µg/mL (≈ 26.5 µM)
MRSA ATCC 43300
  MIC: 4 µg/mL (≈ 6.62 µM)
  MBC: 4 µg/mL (≈ 6.62 µM)

## C=C[C@]1(C)C[C@@H](OC(=O)Cn2cc(CN3CCN(c4ccc(C)cc4)CC3)nn2)[C@]2(C)[C@H](C)CC[C@]3(CCC(=O)[C@H]32)[C@@H](C)[C@@H]1O [Compound 52, 22-(2-(4-(4-(p-Tolyl)-piperazin-1-yl)-methyl)-1H-1,2,3-triazol-1-yl)-22-deoxy pleuromutilin]
S. aureus 144
  MIC: 8 µg/mL (≈ 12.9 µM)
  MBC: 16 µg/mL (≈ 25.9 µM)
S. aureus ATCC 29213
  MIC: 8 µg/mL (≈ 12.9 µM)
  MBC: 8 µg/mL (≈ 12.9 µM)
S. aureus AD3
  MIC: 8 µg/mL (≈ 12.9 µM)
  MBC: 32 µg/mL (≈ 51.8 µM)
MRSA ATCC 43300
  MIC: 4 µg/mL (≈ 6.47 µM)
  MBC: 8 µg/mL (≈ 12.9 µM)

## C=C[C@]1(C)C[C@@H](OC(=O)Cn2cc(CN3CCN(c4cccc(F)c4)CC3)nn2)[C@]2(C)[C@H](C)CC[C@]3(CCC(=O)[C@H]32)[C@@H](C)[C@@H]1O [Compound 54, 22-(2-(4-(4-(3-Fluorophenyl)-piperazin-1-yl)-methyl)-1H-1,2,3-triazol-1-yl)-22-deoxy pleuromutilin]
S. aureus 144
  MIC: 8 µg/mL (≈ 12.9 µM)
  MBC: 16 µg/mL (≈ 25.7 µM)
S. aureus ATCC 29213
  MIC: 8 µg/mL (≈ 12.9 µM)
  MBC: 8 µg/mL (≈ 12.9 µM)
S. aureus AD3
  MIC: 8 µg/mL (≈ 12.9 µM)
  MBC: 16 µg/mL (≈ 25.7 µM)
MRSA ATCC 43300
  MIC: 4 µg/mL (≈ 6.43 µM)
  MBC: 4 µg/mL (≈ 6.43 µM)

## C=C[C@]1(C)C[C@@H](OC(=O)Cn2cc(CN3CCN(c4ccc(F)cc4)CC3)nn2)[C@]2(C)[C@H](C)CC[C@]3(CCC(=O)[C@H]32)[C@@H](C)[C@@H]1O [Compound 55, 22-(2-(4-(4-(4-Fluorophenyl)-piperazin-1-yl)-methyl)-1H-1,2,3-triazol-1-yl)-22-deoxy pleuromutilin]
S. aureus 144
  MIC: 8 µg/mL (≈ 12.9 µM)
  MBC: 32 µg/mL (≈ 51.5 µM)
S. aureus ATCC 29213
  MIC: 8 µg/mL (≈ 12.9 µM)
  MBC: 8 µg/mL (≈ 12.9 µM)
S. aureus AD3
  MIC: 8 µg/mL (≈ 12.9 µM)
  MBC: 16 µg/mL (≈ 25.7 µM)
MRSA ATCC 43300
  MIC: 4 µg/mL (≈ 6.43 µM)
  MBC: 4 µg/mL (≈ 6.43 µM)

## C=C[C@]1(C)C[C@@H](OC(=O)Cn2cc(CN3CCN(c4ccccc4Cl)CC3)nn2)[C@]2(C)[C@H](C)CC[C@]3(CCC(=O)[C@H]32)[C@@H](C)[C@@H]1O [Compound 56, 22-(2-(4-(4-(2-Chlorophenyl)-piperazin-1-yl)-methyl)-1H-1,2,3-triazol-1-yl)-22-deoxy pleuromutilin]
S. aureus 144
  MIC: 16 µg/mL (≈ 25.1 µM)
  MBC: 32 µg/mL (≈ 50.1 µM)
S. aureus ATCC 29213
  MIC: 8 µg/mL (≈ 12.5 µM)
  MBC: 32 µg/mL (≈ 50.1 µM)
S. aureus AD3
  MIC: 16 µg/mL (≈ 25.1 µM)
  MBC: 32 µg/mL (≈ 50.1 µM)
MRSA ATCC 43300
  MIC: 4 µg/mL (≈ 6.27 µM)
  MBC: 4 µg/mL (≈ 6.27 µM)

## C=C[C@]1(C)C[C@@H](OC(=O)Cn2cc(CN3CCN(c4cccc(Cl)c4)CC3)nn2)[C@]2(C)[C@H](C)CC[C@]3(CCC(=O)[C@H]32)[C@@H](C)[C@@H]1O [Compound 57, 22-(2-(4-(4-(3-Chlorophenyl)-piperazin-1-yl)-methyl)-1H-1,2,3-triazol-1-yl)-22-deoxy pleuromutilin]
S. aureus 144
  MIC: 8 µg/mL (≈ 12.5 µM)
  MBC: 16 µg/mL (≈ 25.1 µM)
S. aureus ATCC 29213
  MIC: 8 µg/mL (≈ 12.5 µM)
  MBC: 16 µg/mL (≈ 25.1 µM)
S. aureus AD3
  MIC: 16 µg/mL (≈ 25.1 µM)
  MBC: 32 µg/mL (≈ 50.1 µM)
MRSA ATCC 43300
  MIC: 4 µg/mL (≈ 6.27 µM)
  MBC: 8 µg/mL (≈ 12.5 µM)

## C=C[C@]1(C)C[C@@H](OC(=O)Cn2cc(CN3CCN(c4ccc(Cl)cc4)CC3)nn2)[C@]2(C)[C@H](C)CC[C@]3(CCC(=O)[C@H]32)[C@@H](C)[C@@H]1O [Compound 58, 22-(2-(4-(4-(4-Chlorophenyl)-piperazin-1-yl)-methyl)-1H-1,2,3-triazol-1-yl)-22-deoxy pleuromutilin]
S. aureus 144
  MIC: 16 µg/mL (≈ 25.1 µM)
  MBC: 32 µg/mL (≈ 50.1 µM)
S. aureus ATCC 29213
  MIC: 8 µg/mL (≈ 12.5 µM)
  MBC: 16 µg/mL (≈ 25.1 µM)
S. aureus AD3
  MIC: 8 µg/mL (≈ 12.5 µM)
  MBC: 32 µg/mL (≈ 50.1 µM)
MRSA ATCC 43300
  MIC: 4 µg/mL (≈ 6.27 µM)
  MBC: 4 µg/mL (≈ 6.27 µM)

## C=C[C@]1(C)C[C@@H](OC(=O)Cn2cc(CN3CCN(c4ccccc4OC)CC3)nn2)[C@]2(C)[C@H](C)CC[C@]3(CCC(=O)[C@H]32)[C@@H](C)[C@@H]1O [Compound 59, 22-(2-(4-(4-(2-Methoxyphenyl)-piperazin-1-yl)-methyl)-1H-1,2,3-triazol-1-yl)-22-deoxy pleuromutilin]
S. aureus 144
  MIC: 8 µg/mL (≈ 12.6 µM)
  MBC: 16 µg/mL (≈ 25.2 µM)
S. aureus ATCC 29213
  MIC: 8 µg/mL (≈ 12.6 µM)
  MBC: 8 µg/mL (≈ 12.6 µM)
S. aureus AD3
  MIC: 4 µg/mL (≈ 6.31 µM)
  MBC: 16 µg/mL (≈ 25.2 µM)
MRSA ATCC 43300
  MIC: 4 µg/mL (≈ 6.31 µM)
  MBC: 4 µg/mL (≈ 6.31 µM)

## C=C[C@]1(C)C[C@@H](OC(=O)Cn2cc(CN3CCN(c4cccc(OC)c4)CC3)nn2)[C@]2(C)[C@H](C)CC[C@]3(CCC(=O)[C@H]32)[C@@H](C)[C@@H]1O [Compound 60, 22-(2-(4-(4-(3-Methoxyphenyl)-piperazin-1-yl)-methyl)-1H-1,2,3-triazol-1-yl)-22-deoxy pleuromutilin]
S. aureus 144
  MIC: 8 µg/mL (≈ 12.6 µM)
  MBC: 16 µg/mL (≈ 25.2 µM)
S. aureus ATCC 29213
  MIC: 8 µg/mL (≈ 12.6 µM)
  MBC: 8 µg/mL (≈ 12.6 µM)
S. aureus AD3
  MIC: 4 µg/mL (≈ 6.31 µM)
  MBC: 16 µg/mL (≈ 25.2 µM)
MRSA ATCC 43300
  MIC: 4 µg/mL (≈ 6.31 µM)
  MBC: 8 µg/mL (≈ 12.6 µM)

## C=C[C@]1(C)C[C@@H](OC(=O)Cn2cc(CN3CCN(c4ccc(OC)cc4)CC3)nn2)[C@]2(C)[C@H](C)CC[C@]3(CCC(=O)[C@H]32)[C@@H](C)[C@@H]1O [Compound 61, 22-(2-(4-(4-(4-Methoxyphenyl)-piperazin-1-yl)-methyl)-1H-1,2,3-triazol-1-yl)-22-deoxy pleuromutilin]
S. aureus 144
  MIC: 8 µg/mL (≈ 12.6 µM)
  MBC: 16 µg/mL (≈ 25.2 µM)
S. aureus ATCC 29213
  MIC: 4 µg/mL (≈ 6.31 µM)
  MBC: 8 µg/mL (≈ 12.6 µM)
S. aureus AD3
  MIC: 4 µg/mL (≈ 6.31 µM)
  MBC: 8 µg/mL (≈ 12.6 µM)
MRSA ATCC 43300
  MIC: 4 µg/mL (≈ 6.31 µM)
  MBC: 16 µg/mL (≈ 25.2 µM)

## C=C[C@]1(C)C[C@@H](OC(=O)Cn2cc(CN3CCN(c4ccccc4O)CC3)nn2)[C@]2(C)[C@H](C)CC[C@]3(CCC(=O)[C@H]32)[C@@H](C)[C@@H]1O [Compound 65, 22-(2-(4-(4-(2-Hydroxyphenyl)-piperazin-1-yl)-methyl)-1H-1,2,3-triazol-1-yl)-22-deoxy pleuromutilin]
S. aureus 144
  MIC: 8 µg/mL (≈ 12.9 µM)
  MBC: 16 µg/mL (≈ 25.8 µM)
S. aureus ATCC 29213
  MIC: 8 µg/mL (≈ 12.9 µM)
  MBC: 8 µg/mL (≈ 12.9 µM)
S. aureus AD3
  MIC: 4 µg/mL (≈ 6.45 µM)
  MBC: 8 µg/mL (≈ 12.9 µM)
MRSA ATCC 43300
  MIC: 4 µg/mL (≈ 6.45 µM)
  MBC: 8 µg/mL (≈ 12.9 µM)

## C=C[C@]1(C)C[C@@H](OC(=O)Cn2cc(CN3CCN(c4cccc(O)c4)CC3)nn2)[C@]2(C)[C@H](C)CC[C@]3(CCC(=O)[C@H]32)[C@@H](C)[C@@H]1O [Compound 66, 22-(2-(4-(4-(3-Hydroxyphenyl)-piperazin-1-yl)-methyl)-1H-1,2,3-triazol-1-yl)-22-deoxy pleuromutilin]
S. aureus 144
  MIC: 8 µg/mL (≈ 12.9 µM)
  MBC: 16 µg/mL (≈ 25.8 µM)
S. aureus ATCC 29213
  MIC: 8 µg/mL (≈ 12.9 µM)
  MBC: 16 µg/mL (≈ 25.8 µM)
S. aureus AD3
  MIC: 8 µg/mL (≈ 12.9 µM)
  MBC: 32 µg/mL (≈ 51.6 µM)
MRSA ATCC 43300
  MIC: 4 µg/mL (≈ 6.45 µM)
  MBC: 8 µg/mL (≈ 12.9 µM)
